Test results taken from patent US20230293519A1, “INTEGRIN INHIBITORS AND USES THEREOF IN COMBINATION WITH OTHER AGENTS” (Pliant Therapeutics, Inc., priority 2021, published 2023).
Blank lines part the entries; values can stand above or below the compound they belong to.

Experiments:
[1] = tested on: fibrosis-related gene expression in explanted human lung tissue from patients with idiopathic pulmonary fibrosis; test: nCounter Fibrosis Panel gene expression in precision cut lung slices from IPF explants; format: cell-based; settings: IPF PCLS, 7 days, vs DMSO
Excerpt: Fibrosis-related gene expression in explanted human lung tissue from patients with idiopathic pulmonary fibrosis was examined in order to determine what impact combining Compound 5 treatment with standard-of-care drugs nintedanib or pirfenidone, has on the expression of such genes.
Samples used for this analysis are a subset (n = 4 of 7) of the lungs previously reported on in Decaris et al., Respir Res (2021) 22:265 (FIGS. 6 A and B). Briefly, tissue samples from patients with IPF were acquired at the time of lung transplantation. Precision cut lung slices were generated from the explants and cultured for 7 days in the presence of inhibitors (Compound 5, nintedanib, pirfenidone) at clinically relevant concentrations or vehicle (DMSO). Treated slices were lysed in mRNA-compatible buffer for gene expression analysis. For this study, the lysate from n = 6 slices per treatment per lung were pooled for analysis using the nCounter Fibrosis Panel (Nanostring) on the nCounter Max analyzer (Nanostring). This commercially available panel of 770 genes includes genes related to initial tissue damage response, chronic inflammation, proliferation of pro-fibrotic cells, and tissue modification leading to fibrotic disease. Technical quality control and normalization of raw Nanostring mRNA count data was performed using an R framework developed by Bhattacharya et al. (Bhattacharya A. et al., Brief Bioinform. 2021 May 20;22(3):bbaa163). The R packages limma (see URL www.bioconductor.org/packages/release/bioc/html/limma.html) and voom (Law, C.W. et al., Genome Biol. 2014 Feb 3;15(2):R29) were used to detect differentially expressed genes. Benjamini-Hochberg False Discovery Rate (FDR = 5%) was used to adjust p-values for multiple comparisons.

lung Col1a1 expression = test: Precision cut lung slices of mice under chronic bleomycin exposure (vs pirfenidone and nintedanib); format: cell-based, mouse; settings: slices cultured 7 days; nintedanib and pirfenidone at 10x therapeutic concentrations
Description: Mice (C57BL/6) were administered 3 U/kg of bleomycin (Teva Pharmaceuticals; North Wales, PA) on Day 0 and 1 U/kg of bleomycin on days 14, 28, 42 and 56 via oropharyngeal aspiration while under anesthesia. At day 70, 14 days following the final bleomycin insult, precision cut lung slices were obtained. Following euthanization, 2% low gelling temp agarose was injected into the mouse lungs via the trachea. […] The lobes were then subjected to precision slicing to obtain samples for culture using a microtome (Compresstome VF-300-0Z, Precisionary; Greenville, NC). Individual slices were distributed in a multiwell culture plate and cultured for 7 days under control (DMSO) and test compound conditions. The viability of the slices over the course of culturing was confirmed by WST-1 assay of mitochondrial activity.
During the culture period, slices in the control group were treated with DMSO and slices in the test group were treated with a DMSO solution of one of: compound 5; nintedanib; pirfenidone; a combination of nintedanib and compound 5; a combination of pirfenidone and compound 5; or the small molecule ALK5 inhibitor. Compound 5 was […] effective to equal or exceed its respective IC50 values at αvβ6 and αvβ1. The small molecule ALK5 inhibitor was analyzed at 10x its reported IC50 value. Nintendanib and pirfenidone were analyzed at concentrations 10x their reported therapeutic concentrations.

[2] = tested on: Type I Collagen gene Col1a1 expression; test: Precision cut lung slices of mice under acute bleomycin exposure; format: cell-based, mouse
Description: Mice (C57BL/6) were administered 3 U/kg of bleomycin (Teva Pharmaceuticals; North Wales, PA) on day 0 via oropharyngeal aspiration while under anesthesia. On day 14, precision cut lung slices were obtained. Following euthanization, 2% low gelling temp agarose was injected into the mouse lungs via the trachea. […] The lobes were then subjected to precision slicing to obtain samples for culture using a microtome (Compresstome VF-300-0Z, Precisionary; Greenville, NC). Individual slices were distributed in a multiwell culture plate and cultured for 3 days under control (DMSO) and test compound conditions.

COL1A1 expression = test: PCLS from human IPF lung tissue, 7 days: COL1A1 expression; format: cell-based; settings: Compound 5 200 nM, nintedanib 75 nM, pirfenidone 50 µM, 5-7 IPF lungs
Description: PCLS from 5-7 idopathic pulmonary fibrosis (IPF) lung tissue samples were cultured for seven days with one of: DMSO; Compound 5 at 200 nM; nintedanib at 75 nM; pirfenidone at 50 µm; a combination of Compound 5 at 200 nM and nintedanib at 75 nM; a combination of Compound 5 at 200 nM and pirfenidone at 50 µm; or an Alk5 inhibitor at 1 µm. […] FIG. 6D is a bar graph showing relative expression of COL1A1 in precision cut lung slices (PCLS) from idopathic pulmonary fibrosis (IPF) lung tissue upon exposure to Comopund 5, clinical standard of care compounds nintedanib (Nin) and pirfenidone (Pirf), and an ALK5 inhibitor, all versus DMSO control.
PCLS from a single IPF lung tissue sample were cultured for seven days with Compound 5 at concentrations of 200 pM, 2 nM, 60 nM, 200 nM, and 1 µM, along with 0.1% DMSO control and an Alk5 inhibitor at 1 µM. […] COL1A1 expression is also graphed for the PCLS in the presence of 0.1% DMSO control, and an Alk5 inhibitor at 1 µM.

[3] = target: recombinant human integrin αvβ6 (Homo sapiens (Human), UniProt P06756+P18564); test: Solid phase integrin αvβ6 binding assay; settings: IC50 presented in four ranges; read-out: αvβ6 Inhibition IC50 (nM) - range
recombinant human integrin αvβ6, sequence (P06756 31-889): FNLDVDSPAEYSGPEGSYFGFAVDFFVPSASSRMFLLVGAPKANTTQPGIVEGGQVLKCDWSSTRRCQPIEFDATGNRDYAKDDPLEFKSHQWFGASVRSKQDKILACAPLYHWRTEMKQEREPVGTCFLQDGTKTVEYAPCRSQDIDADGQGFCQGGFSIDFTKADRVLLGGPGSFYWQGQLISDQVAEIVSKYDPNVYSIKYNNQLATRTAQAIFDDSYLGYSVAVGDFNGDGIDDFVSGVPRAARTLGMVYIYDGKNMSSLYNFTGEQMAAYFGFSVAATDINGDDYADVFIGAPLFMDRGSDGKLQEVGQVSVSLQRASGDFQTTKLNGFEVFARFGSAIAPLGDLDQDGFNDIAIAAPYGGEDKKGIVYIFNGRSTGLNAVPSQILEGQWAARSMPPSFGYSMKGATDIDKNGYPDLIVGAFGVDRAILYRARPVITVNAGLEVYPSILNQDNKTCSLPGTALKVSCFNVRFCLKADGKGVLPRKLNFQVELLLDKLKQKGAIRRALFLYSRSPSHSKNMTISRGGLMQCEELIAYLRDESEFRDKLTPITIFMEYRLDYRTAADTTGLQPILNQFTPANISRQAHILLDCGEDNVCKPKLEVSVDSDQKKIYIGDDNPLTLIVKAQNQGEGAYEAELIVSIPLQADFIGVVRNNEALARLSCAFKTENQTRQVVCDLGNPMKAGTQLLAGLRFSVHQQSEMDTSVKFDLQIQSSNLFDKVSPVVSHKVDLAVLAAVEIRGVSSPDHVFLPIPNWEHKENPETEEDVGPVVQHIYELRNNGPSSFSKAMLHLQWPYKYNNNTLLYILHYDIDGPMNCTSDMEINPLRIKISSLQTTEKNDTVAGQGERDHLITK
recombinant human integrin αvβ6, sequence (P06756 890-992 partner): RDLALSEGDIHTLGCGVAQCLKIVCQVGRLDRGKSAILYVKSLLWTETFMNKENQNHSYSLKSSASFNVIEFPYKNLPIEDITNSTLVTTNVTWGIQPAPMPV
recombinant human integrin αvβ6, sequence (P18564 22-707): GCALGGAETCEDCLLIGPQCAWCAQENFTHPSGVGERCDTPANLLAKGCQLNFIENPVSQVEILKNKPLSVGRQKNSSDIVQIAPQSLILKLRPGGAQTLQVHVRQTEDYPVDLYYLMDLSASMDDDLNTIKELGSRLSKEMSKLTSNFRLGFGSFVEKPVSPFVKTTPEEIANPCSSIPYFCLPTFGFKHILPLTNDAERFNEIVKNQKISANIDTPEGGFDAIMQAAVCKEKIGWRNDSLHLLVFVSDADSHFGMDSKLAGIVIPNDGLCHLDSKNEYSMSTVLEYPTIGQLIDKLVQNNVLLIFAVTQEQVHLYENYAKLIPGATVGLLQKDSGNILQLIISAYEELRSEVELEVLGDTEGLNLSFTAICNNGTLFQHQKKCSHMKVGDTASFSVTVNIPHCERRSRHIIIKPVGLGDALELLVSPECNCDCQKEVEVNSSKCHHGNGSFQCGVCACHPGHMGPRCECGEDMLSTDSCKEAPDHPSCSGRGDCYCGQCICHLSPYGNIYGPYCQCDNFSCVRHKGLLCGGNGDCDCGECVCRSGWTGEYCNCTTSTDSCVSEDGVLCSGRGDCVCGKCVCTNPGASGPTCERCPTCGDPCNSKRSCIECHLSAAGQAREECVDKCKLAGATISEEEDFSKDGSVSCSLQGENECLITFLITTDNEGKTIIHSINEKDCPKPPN
Description: (§1) Microplates were coated with recombinant human integrin αvβ6 (2 µg/mL) in PBS (100 µL/well 25° C., overnight). The coating solution was removed, washed with wash buffer (0.05% Tween 20; 0.5 mM MnCl2; in 1x TBS). The plate was blocked with 200 µL/well of Block Buffer (1% BSA; 5% sucrose; 0.5 mM MnCl2; in 1x TBS) at 37° C. for 2 h. Dilutions of testing compounds and recombinant TGFβ1 LAP (0.67 µg/mL) in binding buffer (0.05% BSA; 2.5% sucrose; 0.5 mM MnCl2; in 1x TBS) were added. The plate was incubated for 2 hours at 25° C., washed, and incubated for 1 hour with Biotin-Anti-hLAP. Bound antibody was detected by peroxidase-conjugated streptavidin. The IC50 values for testing compounds were calculated by a four-parameter logistic regression.
The compounds tested were compound samples prepared according to procedures described in the Synthetic Examples section, with the stereochemical purity as indicated in the Examples.
as §1, with “A third series of exemplary compounds was selected for testing in the solid phase integrin αvβ6 binding assay. The compounds tested were compound samples prepared according to procedures described in the Synthetic Examples section, with the stereochemical purity as indicated in the Examples. As in Example B1, microplates” for “Microplates”

SMILES: COC(=O)c1ccc2c(c1)NC(=O)/C2=C(\Nc1ccc(N(C)C(=O)CN2CCN(C)CC2)cc1)c1ccccc1 [nintedanib, 3-Z-[1-(4-(N-((4-methyl-piperazin-1-yl)-methylcarbonyl)-N-methyl-amino)-anilino)-1-phenyl-methylene]-6-methoxycarbonyl-2-indolinone]
% Reduction of APOC2 expression [1]: 16.88%
% Reduction of CDH2 expression [1]: -9.99%
% Reduction of COL1A1 expression [1]: 27.60%
% Reduction of COL4A2 expression [1]: 31.55%
% Reduction of FAP expression [1]: 35.72%
% Reduction of FCGR3A/B expression [1]: 33.44%
% Reduction of ITGB3 expression [1]: 16.60%
% Reduction of LOX expression [1]: 40.76%
% Reduction of LOXL2 expression [1]: 15.99%
% Reduction of NID1 expression [1]: 26.59%
% Reduction of PDGFRB expression [1]: 42.09%
% Reduction of POSTN expression [1]: 38.94%
% Reduction of SERPINE1 expression [1]: 9.75%
% Reduction of SERPINH1 expression [1]: 15.02%
% Reduction of SPP1 expression [1]: 59.73%
% Reduction of TGFB1 expression [1]: 21.04%
% Reduction of THBS2 expression [1]: 25.58%
logFC of ACTA2 expression [1]: 0.6841
logFC of ACVRL1 expression [1]: -1.329
logFC of ADH1B expression [1]: 0.8975
logFC of ADH1C expression [1]: 0.9337
logFC of ALDH7A1 expression [1]: 0.7402
logFC of AMOTL2 expression [1]: 0.5767
logFC of CCL19 expression [1]: 0.789
logFC of CD34 expression [1]: -1.516
logFC of CDH5 expression [1]: -2.328
logFC of CETP expression [1]: -1.732
logFC of CFTR expression [1]: 0.8907
logFC of COL6A5 expression [1]: 0.6309
logFC of COL10A1 expression [1]: -1.169
logFC of COX4I2 expression [1]: -2.07
logFC of CXCL10 expression [1]: -1.71
logFC of CXCR4 expression [1]: -1.727
logFC of CYP2J2 expression [1]: 1.025
logFC of DLL4 expression [1]: -2.786
logFC of ELN expression [1]: 0.8689
logFC of FLT1 expression [1]: -3.369
logFC of FLT4 expression [1]: -1.476
logFC of FST expression [1]: 1.092
logFC of GPX2 expression [1]: 1.178
logFC of IGF1 expression [1]: 0.632
logFC of KLF5 expression [1]: 0.8124
logFC of LAMA3 expression [1]: 0.6871
logFC of MASP1 expression [1]: 0.8164
logFC of MET expression [1]: 0.7131
logFC of MMP8 expression [1]: -1.053
logFC of MMP9 expression [1]: -1.1396
logFC of MMP11 expression [1]: -1.002
logFC of MMP12 expression [1]: -1.411
logFC of NOS3 expression [1]: -1.356
logFC of NOTCH4 expression [1]: -1.605
logFC of OCLN expression [1]: 0.6026
logFC of PECAM1 expression [1]: -1.967
logFC of PYGM expression [1]: 0.6237
logFC of TEK expression [1]: -1.206
logFC of TPSAB1/B2 expression [1]: -1.195
logFC of WWC1 expression [1]: 0.7518
lung Col1a1 expression vs DMSO control (lung Col1a1 expression): slight increase
fold increase in concentration over compound 5 needed to reduce lung slice Col1a1 expression by 50% ([2]; acute bleomycin injured lung slices): 5.2 fold
reduction of COL1A1 expression (COL1A1 expression): did not significantly reduce

SMILES: CC(C)(C)c1cc(Br)cc(C(CC(=O)O)NC(=O)CNC(=O)c2cc(O)cc(NC3=NCC(O)CN3)c2)c1 [second pan-αv small molecule inhibitor, (3S)-N-[3-hydroxy-5-[(1,4,5,6-tetrahydro-5-hydroxy-2-pyrimidinyl)amino]benzoyl]glycyl-3-[3-bromo-5-(1,1-dimethylethyl)phenyl]-(3-alanine]
Type I Collagen gene Col1a1 expression vs DMSO control ([2]; slices cultured 3 days, integrin inhibitors at IC50, pan-αv and ALK5 inhibitors at 10x IC50): reduced

SMILES: O=C(O)[C@H](CCN(CCCCc1ccc2c(n1)NCCC2)CCOc1ccccc1)Nc1ncc(C2CC2)cn1 [compound 117]
IC50 [3]: < 50 nM

SMILES: CO[C@H](C)CN(CCCCc1ccc2c(n1)NCCC2)CC[C@H](Nc1ncc(C2CC2)cn1)C(=O)O [compound 124]
IC50 [3]: < 50 nM

SMILES: CN(C)C(=O)CN(CCCCc1ccc2c(n1)NCCC2)CC[C@H](Nc1ncnc2c1cnn2C)C(=O)O [compound 140]
IC50 [3]: < 50 nM

SMILES: CO[C@H](C)CN(CCCCc1ccc2c(n1)NCCC2)CC[C@H](Nc1cc(-n2cccn2)ncn1)C(=O)O [compound 77]
IC50 [3]: < 50 nM

The remaining lines, values ahead:

IC50 [3]: < 50 nM
SMILES: O=C(O)[C@H](CCN(CCCCc1ccc2c(n1)NCCC2)CC1CCO1)Nc1ncnc2ccccc12 (stereo partly shown) [compound 129]

IC50 [3]: < 50 nM
SMILES: COCCN(CCCCc1ccc2c(n1)NCCC2)CC[C@H](Nc1ncnc2ccc(F)cc12)C(=O)O [compound 19]

IC50 [3]: < 50 nM
SMILES: N#Cc1cnc(N[C@@H](CCN(CCCCc2ccc3c(n2)NCCC3)CCOc2ccc(F)cc2)C(=O)O)nc1 [compound 138]

IC50 [3]: > 1000 nM
SMILES: O=C(O)[C@H](CCN(CCCCc1ccc2c(n1)NCCC2)CC(F)F)Nc1ccncn1 [compound 120]

IC50 [3]: 50 to 250 nM
SMILES: O=C(O)[C@H](CCN(CCCCc1ccc2c(n1)NCCC2)C1CC1)Nc1ncnc2ccccc12 [compound 6]
